Like-named read-outs stand apart in the source and are kept apart here.
Columns and labels:
[1] = system: PC-3 cells
[2] = system: C4-2B cells;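 further: cells treated with a dilution series for 72 h, then MTT added and absorbance read at 600 nm, IC50 fitted from dose-response curves by nonlinear regression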
Experimental: (§1) MDA PCa 2b was seeded at the same density in medium BRFF-HPC1 (Athena Enzyme Systems, Baltimore, Md., USA) supplemented with 20% FBS. After overnight incubation, the medium was changed to a fresh medium containing different concentrations of test compounds diluted from stock DMSO solution. The final concentration of DMSO is 0.5%. After 72 h of incubation with test compounds, 20 μL of 3-(4,5-dimethyl thiazol-2-yl)-2,5-diphenyltetrazolium bromide (MTT) solution (5 mg/mL in PBS) were added to each well and incubated further for 2 h. Next, the supernatant was aspirated and the MTT formazan formed by metabolically viable cells was dissolved in 100 μL of isopropanol. The plates were mixed for 30 min, and the absorbance was measured at 600 nm on a plate reader (FLUOstar OPTIMA, BMG LabTech). All samples were in triplicate. The IC50 values were determined from dose-response curves by nonlinear regression using PRISM v5.00 (GraphPad Software Inc, La Jolla, Calif., USA).
(§2) The in vitro cytotoxicity of 1-20 were evaluated by MTT assays in a panel of prostate cancer cell lines, including LNCaP, MDA PCa 2b, 22Rv1, C4-2B and PC-3.

[3] = system: LNCaP cells;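 further: MTT formazan absorbance at 600 nm read after 72 h of compound exposure, IC50 fitted by nonlinear regression of dose-response curves, samples run in triplicate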
Experimental: as §1, §2

[4] = system: 22Rv1 cells
[5] = system: MDA PCa 2b cells;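 further: MDA PCa 2b prostate cancer cells in BRFF-HPC1 with 20% FBS, exposed to compounds for 72 h, viable-cell MTT formazan read as absorbance at 600 nm, 0.5% DMSO vehicle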
[6] = system: LNCaP cells; test: MTT cell growth inhibition, LNCaP;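 further: MTT formazan absorbance at 600 nm read after 72 h of compound exposure, IC50 fitted by nonlinear regression of dose-response curves, samples run in triplicate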
Experimental: as §1, §2

[7] = system: C4-2B cells; test: MTT cell growth inhibition, C4-2B; settings: read-out: Cellular IC50 (μM) C4-2B, Table 9;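 further: cells treated with a dilution series for 72 h, then MTT added and absorbance read at 600 nm, IC50 fitted from dose-response curves by nonlinear regression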
Experimental: as §1, §2

[8] = system: PC-3 cells; test: MTT cell growth inhibition, PC-3; settings: read-out: Cellular IC50 (μM) PC-3, Table 9
[9] = system: 22Rv1 cells; test: MTT cell growth inhibition, 22Rv1; settings: read-out: Cellular IC50 (μM) 22Rv1; Table 9; MTT
[10] = read-out: Cellular IC50 (μM) LNCaP, Table 9

| SMILES | IC50 [1] [µM] | IC50 [3] [µM] | IC50 [4] [µM] | further results |
| --- | --- | --- | --- | --- |
| CC1=CCCC(C)(C)C1/C=C/C(=O)/C=C/c1ccccc1C(F)(F)F (racemic) [Compound B16] | 19 | 22.6 | 18.4 | IC50 [2]: 11.7 µM |
| CC1=CCCC(C)(C)C1/C=C/C(=O)/C=C/c1ccc(C(F)(F)F)cc1 (racemic) [Compound B18] | 7.9 | 4.7 | 3.3 | IC50 [5]: 7 µM; IC50 [2]: 5.2 µM |
| CC1=CCCC(C)(C)C1/C=C/C(=O)/C=C/c1ccccc1F (racemic) [Compound B19] | 4.8 | 1.6 | 9.4 | IC50 [5]: 8.3 µM; IC50 [2]: 6 µM |
| CC1=CCCC(C)(C)C1/C=C/C(=O)/C=C/c1cc(C(F)(F)F)ccc1F (racemic) [Compound B20] | 3.1 | 1.7 | 3.5 | IC50 [5]: 3 µM; IC50 [2]: 4.7 µM |
| CC1=CCCC(C)(C)C1/C=C/C(=O)/C=C/c1cccc(C)c1 (racemic) [Compound B22] | 5.9 | 12.2 | 15.2 | IC50 [2]: 6.2 µM |
| CC1=C(/C=C/C(=O)/C=C/c2ccccc2C(F)(F)F)C(C)(C)CCC1O (racemic) [Compound B24] | 3.7 | 2.9 | 2.3 | IC50 [5]: 2.9 µM |
| CC1=C(/C=C/C(=O)/C=C/c2ccc(C(F)(F)F)cc2)C(C)(C)CCC1O (racemic) [Compound B26] | 10.2 | 3 | 3.2 | IC50 [5]: 9.3 µM |
| CC1=C(/C=C/C(=O)/C=C/c2cc(C(F)(F)F)ccc2C(F)(F)F)C(C)(C)CCC1O (racemic) [Compound B27] | 1.9 | 3.2 |  | IC50 [5]: 4 µM |
| CC1=C(/C=C/C(=O)/C=C/c2cc(C(F)(F)F)cc(C(F)(F)F)c2)C(C)(C)CCC1O (racemic) [Compound B28] | 7 | 2.1 | 2.2 | IC50 [5]: 3.5 µM |
| CC1=C(/C=C/C(=O)/C=C/c2ccccc2F)C(C)(C)CCC1O (racemic) [Compound B29] | 10.4 | 2.9 | 3.3 |  |
| CC1=C(/C=C/C(=O)/C=C/c2cccc(F)c2)C(C)(C)CCC1O (racemic) [Compound B30] | 16 | 4.4 | 5.6 |  |
| CC1=C(/C=C/C(=O)/C=C/c2ccc(F)cc2)C(C)(C)CCC1O (racemic) [Compound B31] | 6.2 | 3.9 | 7.5 | IC50 [2]: 4 µM |
| CC1=C(/C=C/C(=O)/C=C/c2cc(F)cc(C(F)(F)F)c2)C(C)(C)CCC1O (racemic) [Compound B33] | 3 | 1.1 | 2.4 |  |
| CC1=C(/C=C/C(=O)/C=C/c2cccc(C(F)(F)F)c2F)C(C)(C)CCC1O (racemic) [Compound B34] | 2.1 | 1.1 |  |  |
| CC1=C(/C=C/C(=O)/C=C/c2ccc(C(F)(F)F)cc2F)C(C)(C)CCC1O (racemic) [Compound B35] | 4.6 | 2.6 | 3.8 |  |
| CC1=C(/C=C/C(=O)/C=C/c2cc(C(F)(F)F)ccc2F)C(C)(C)CCC1O (racemic) [Compound B36] | 3.6 | 1.7 | 2 |  |
| CC1=C(/C=C/C(=O)/C=C/c2c(F)cccc2C(F)(F)F)C(C)(C)CCC1O (racemic) [Compound B37] | 8.8 | 4.9 | 8.9 |  |
| CC1=C(/C=C/C(=O)/C=C/c2cccc(C)c2)C(C)(C)CCC1O (racemic) [Compound B38] | 6.2 | 4.1 | 4.4 | IC50 [5]: 19 µM |
| CC1=C(/C=C/C(=O)/C=C/c2cccc(C#N)c2)C(C)(C)CCC1O (racemic) [Compound B39] | 7.2 | 1.8 | 2.2 |  |
| CC1=C(/C=C/C(=O)/C=C/c2cccc([N+](=O)[O-])c2)C(C)(C)CCC1O (racemic) [Compound B40] | 5.8 | 2 | 1.9 | IC50 [5]: 6 µM |
| CC1=C(/C=C/C(=O)/C=C/c2ccc([N+](=O)[O-])cc2)C(C)(C)CCC1O (racemic) [Compound B41] | 15 | 4.2 | 4.1 |  |
| COc1cccc(/C=C/C(=O)/C=C/C2=C(C)C(O)CCC2(C)C)c1 (racemic) [Compound B42] | 6.5 | 4.9 |  |  |
| COc1cc(/C=C/C(=O)/C=C/C2=C(C)CCCC2(C)C)ccc1O [Compound B1] | 21.3 | 9.5 |  |  |
| COc1ccc(/C=C/C(=O)/C=C/C2=C(C)CCCC2(C)C)cc1O [Compound B2] | 37.4 | 9.9 |  |  |
| COc1ccc(/C=C/C(=O)/C=C/C2=C(C)CCCC2(C)C)cc1OC [Compound B3] | 42 | 9.5 |  |  |
| CCOc1ccc(/C=C/C(=O)/C=C/C2=C(C)CCCC2(C)C)cc1OCC [Compound B4] | > 50 | 8.2 |  |  |

| SMILES | IC50 [1] [µM] | IC50 [3] [µM] | IC50 [4] [µM] | further results |
| --- | --- | --- | --- | --- |
| CC1=C(/C=C/C(=O)/C=C/c2cccc(C(F)(F)F)c2)C(C)(C)CCC1 [Compound B5] | 7.7 |  |  | IC50 ([6]; read-out: IC50 in LNCaP cells): 2.8 µM |
| CC1=C(/C=C/C(=O)/C=C/c2ccc(C(F)(F)F)cc2)C(C)(C)CCC1 [Compound B6] | 12 | 9.1 |  |  |
| CC1=C(/C=C/C(=O)/C=C/c2cc(C(F)(F)F)cc(C(F)(F)F)c2)C(C)(C)CCC1 [Compound B7] | 7.2 | 8.7 |  |  |
| CC1=C(/C=C/C(=O)/C=C/c2ccccc2F)C(C)(C)CCC1 [Compound B8] | 22.1 | 10.7 |  |  |
| CC1=C(/C=C/C(=O)/C=C/c2cccc(F)c2)C(C)(C)CCC1 [Compound B9] | 18.7 |  |  | IC50 ([6]; read-out: IC50 in LNCaP cells): 12.9 µM |
| CC1=C(/C=C/C(=O)/C=C/c2ccc(F)cc2)C(C)(C)CCC1 [Compound B10] | 25.8 | 7.3 |  |  |
| CC1=C(/C=C/C(=O)/C=C/c2cccc([N+](=O)[O-])c2)C(C)(C)CCC1 [Compound B11] | 10 | 2.7 |  |  |
| CC1=C(/C=C/C(=O)/C=C/c2ccc(O)c([N+](=O)[O-])c2)C(C)(C)CCC1 [Compound B12] | > 50 | 26.8 |  |  |
| CC1=C(/C=C/C(=O)/C=C/c2cc([N+](=O)[O-])ccc2Cl)C(C)(C)CCC1 [Compound B13] | 18.9 | 4.2 |  |  |
| CC1=C(/C=C/C(=O)/C=C/c2cccc(C)c2)C(C)(C)CCC1 [Compound B14] | 35 | 17.8 |  |  |
| CC1=C(/C=C/C(=O)/C=C/c2ccc(-c3ccccc3)cc2)C(C)(C)CCC1 [Compound B15] | 47.8 | 14.8 |  |  |
| CCOC(OCC)c1cccc(/C=C/C(=O)/C=C/C2=C(C)C(O)CCC2(C)C)c1 (stereo not shown) [Compound B43] | 4.7 | 1.8 |  |  |
| CC1(C)CCC(O)C=C1/C=C/C(=O)/C=C/c1ccc2c(c1)OCCO2 (stereo not shown) [Compound B78] |  |  |  | IC50 [6, 10]: 10.8 µM; IC50 [7]: 10.3 µM; IC50 [8]: 23.2 µM; IC50 [9]: 19.3 µM |
| CC1(C)CCC(O)C=C1/C=C/C(=O)/C=C/c1ccc2c(c1)CCO2 (stereo not shown) [Compound B79] |  |  |  | IC50 [6, 10]: 4.7 µM; IC50 [7]: 5.6 µM; IC50 [8]: 14.8 µM; IC50 [9]: 10.4 µM |
| CC1(C)CCC(O)C=C1/C=C/C(=O)/C=C/c1c[nH]c2ccccc12 (stereo not shown) [Compound B81] |  |  |  | IC50 [6, 10]: 4.6 µM; IC50 [7]: 2.3 µM; IC50 [8]: 15.2 µM; IC50 [9]: 9.1 µM |
| Cc1ccc2[nH]cc(/C=C/C(=O)/C=C/C3=CC(O)CCC3(C)C)c2c1 (stereo not shown) [Compound B82] |  |  |  | IC50 [6, 10]: 3.8 µM; IC50 [7]: 6.8 µM; IC50 [8]: 10.6 µM; IC50 [9]: 7.3 µM |
| CC1(C)CCC(O)C=C1/C=C/C(=O)/C=C/c1c[nH]c2ccc(Cl)cc12 (stereo not shown) [Compound B84] |  |  |  | IC50 [6, 10]: 17.8 µM; IC50 [7]: 18.2 µM; IC50 [8]: 24.5 µM; IC50 [9]: 14.3 µM |
| CC1(C)CCC(O)C=C1/C=C/C(=O)/C=C/c1c[nH]c2ccc(Br)cc12 (stereo not shown) [Compound B85] |  |  |  | IC50 [6, 10]: 2.2 µM; IC50 [7]: 4.8 µM; IC50 [8]: 5.8 µM; IC50 [9]: 4 µM |
| Cc1cccc2c(/C=C/C(=O)/C=C/C3=CC(O)CCC3(C)C)c[nH]c12 (stereo not shown) [Compound B86] |  |  |  | IC50 [6, 10]: 2.6 µM; IC50 [7]: 3.6 µM; IC50 [8]: 6.4 µM; IC50 [9]: 5.3 µM |
| CC1(C)CCC(O)C=C1/C=C/C(=O)/C=C/c1c(-c2ccccc2)[nH]c2ccccc12 (stereo not shown) [Compound B87] |  |  |  | IC50 [6, 10]: 3.2 µM; IC50 [7]: 2.2 µM; IC50 [8]: 13.7 µM; IC50 [9]: 12.6 µM |
| Cn1cc(/C=C/C(=O)/C=C/C2=CC(O)CCC2(C)C)c2ccccc21 (stereo not shown) [Compound B88] |  |  |  | IC50 [6, 10]: 9.4 µM; IC50 [7]: 11.8 µM; IC50 [8]: 54.9 µM; IC50 [9]: 21 µM |
| CC1(C)CCC(O)C=C1/C=C/C(=O)/C=C/c1ccc2[nH]ccc2c1 (stereo not shown) [Compound B89] |  |  |  | IC50 [6, 10]: 1.5 µM; IC50 [7]: 1.6 µM; IC50 [8]: 3.1 µM; IC50 [9]: 2.3 µM |
| CC1(C)CCC(O)C=C1/C=C/C(=O)/C=C/c1cccc2cc[nH]c12 (stereo not shown) [Compound B90] |  |  |  | IC50 [6, 10]: 1.4 µM; IC50 [7]: 1.7 µM; IC50 [8]: 2.1 µM; IC50 [9]: 2.1 µM |
| CC1(C)CCC(O)C=C1/C=C/C(=O)/C=C/c1cc2ccccc2s1 (stereo not shown) [Compound B93] |  |  |  | IC50 [6, 10]: 12.9 µM; IC50 [7]: 9.9 µM; IC50 [8]: 23.8 µM; IC50 [9]: 17.6 µM |
| CC1(C)CCC(O)C=C1/C=C/C(=O)/C=C/c1ccc2ccccc2n1 (stereo not shown) [Compound B94] |  |  |  | IC50 [6, 10]: 2 µM; IC50 [7]: 1.5 µM; IC50 [8]: 5.5 µM; IC50 [9]: 2.7 µM |
| CC1(C)CCC(O)C=C1/C=C/C(=O)/C=C/c1ccnc2ccccc12 (stereo not shown) [Compound B96] |  |  |  | IC50 [6, 10]: 1.5 µM; IC50 [7]: 1.5 µM; IC50 [8]: 2.2 µM; IC50 [9]: 1.2 µM |

Reference: patent US8470889B2 (TRT Pharma Inc., priority 2008, dated 2013)
